As a reminder, the EC50 is the concentration giving half of the maximal effect. The CC50 is the concentration at which the toxic effect on the cells reaches its halfway point. The IC50 is the concentration that gives 50% inhibition.

The test system of one data set is HCV genotype 1b replicon. Nature of the data set: HCV replicon assay (Zluc luciferase reporter). The data set is classed as cell-based. As for the experimental part:
Huh-7-derived cell line (Zluc) that harbors an HCV genotype 1b replicon and a luciferase reporter gene was grown in Dulbecco's Modified Eagle Medium (DMEM) supplemented with 10% fetal bovine serum, 2 mM GlutaMAX, 1% MEM nonessential amino acids, 100 IU/mL penicillin, 100 μg/mL streptomycin, and 0.5 mg/mL Geneticin® (G418). For dose response testing the cells were seeded in 96-well plates at 7.5×10^3 cells per well in a volume of 50 μL, and incubated at 37° C./5% CO2. Drug solutions were made up freshly in Huh-7 media as 2× stocks. Ten additional 5-fold dilutions were prepared from these stocks in DMEM without G418. At least three hours after Zluc cells were seeded, drug treatment was initiated by adding 50 μL of drug dilutions to the plates in duplicate. Final concentrations of drug ranged from 100 μM to […]. Cells were then incubated at 37° C./5% CO2. Alternatively, compounds were tested at two concentrations (1 μM and 10 μM). […] For this, media was removed from the plates via gentle tapping. Fifty microliters of ONE-glo luciferase assay reagent was added to each well. The plates were shaken gently for 3 min at room temperature and luminescence was measured on a Victor^3 V 1420 multilabel counter (Perkin Elmer) with a 1 second read time using a 700 nm cut-off filter. The EC50 values were calculated from dose response curves from the resulting best-fit equations determined by Microsoft Excel and XLfit 4.1 software. When screening at two fixed concentrations, the results were expressed as % inhibition at 1 μM and 10 μM.
Background: A replicon is a self-replicating genome or part of one, used to study replication in cells.

A short description of data set [1]: Cytotoxicity evaluation, CellTiter-Blue Cell Viability Assay. Type of data set: cell-based. Conditions: human. The method, then:
(§1) For cytotoxicity evaluation, Zluc cells were treated with test compound as described herein, and cell viability was monitored using the CellTiter-Blue Cell Viability Assay (Promega) by adding 20 μL of the assay solution to each well. The plates were then incubated at 37° C./5% CO2 for at least 3 hours.

Another data set concerns Zluc cells. The description is as above. To be noted: read-out: HCV Replicon CC50. Type of data set: cell-based. As for the experimental part:
as §1

The target of data set [2] is T1, wild-type HCV genotype 1b NS5B protein (Hepatitis C virus genotype 1b, UniProt Q9WMX2).
T1 construct: HCV genotype 1b NS5B protein were used to generate recombinant HCV polymerases (with a deletion of the 21 carboxy terminal amino acids); made in house
In words: HCV polymerase enzyme assay, wild-type. Type of data set: biochemical. An excerpt:
(§2) Test compounds in the form of nucleoside triphosphates were examined for inhibitory activity against purified HCV polymerase in a standard assay. Bacterial expression constructs encoding the approximately 65 kDa HCV genotype 1b NS5B protein were used to generate recombinant HCV polymerases (with a deletion of the 21 carboxy terminal amino acids). Both the wild-type genotype 1b protein and protein containing the S282T mutation were expressed and purified for use in the enzymatic activity assay.
(§3) The enzymatic activity assay measured the inhibitory effect of increasing concentrations of test compound on the incorporation of α-[^33P]-labeled nucleotide into trichloroacetic acid-precipitable material. Recombinant polymerase and synthetic RNA template were combined in reaction buffer containing ribonucleoside triphosphates, α-[^33P]-labeled nucleotide and eight concentrations of test compound in three-fold dilutions. […]
(§4) Reactions were terminated by the addition of ice-cold trichloroacetic acid and sodium pyrophosphate to promote precipitation of newly-synthesized ribonucleic acid. Precipitable material from the reactions was collected by filtration onto 96-well filter plates, washed extensively with water, and quantified by liquid scintillation.
(§5) The inhibitory activity of test compounds was determined by fitting results to dose-response curves using XLfit software.

The target of data set [3] is T2, HCV genotype 1b NS5B protein containing the S282T mutation (Hepatitis C virus genotype 1b, UniProt Q9WMX2, S2701T).
T2 construct: HCV genotype 1b NS5B protein were used to generate recombinant HCV polymerases (with a deletion of the 21 carboxy terminal amino acids); made in house
In words: HCV polymerase enzyme assay, S282T mutant. Conditions: purified recombinant genotype 1b NS5B with S282T mutation; compounds tested as nucleoside triphosphates. Type of data set: biochemical.
Text: as §2, §3, §4, §5

The mark [4] stands for this setting: read-out: HCV Replicon EC50, Huh-7-derived Zluc cells, 72 hours of incubation.
Where [5] appears, read: Zluc cells, read-out: HCV Replicon CC50.
[6] abbreviates: Hepatitis C virus, 72 h, Huh-7-derived Zluc cells, 72 hours of incubation, read-out: HCV Replicon EC50.
The mark [7] stands for this setting: Huh-7-derived Zluc cells, 72 hours of incubation, read-out: HCV Replicon EC50.
The mark [8] stands for this setting: Zluc cells (HCV replicon cells).

Read-outs that look alike come from different tables or passages of the source.

Regarding `CC(C)OC(=O)[C@H](C)NP(=O)(OC[C@@H]1C[C@@](C)(F)[C@H](n2cnc3c(=O)[nH]c(N)nc32)O1)Oc1ccccc1` (single isomer, unassigned) [1b Diastereomer 1], the EC50 in the data set on HCV genotype 1b replicon (setting [4]) lay in the range of 1 to 10 µM. In addition, the CC50 at 72 h in data set [1] (setting [5]) was > 50 µM.

Turning to `CCOc1nc(N)nc2c1ncn2[C@@H]1O[C@H](COP(=O)(N[C@H](C)C(=O)OC(C)C)Oc2ccccc2)C[C@@]1(C)F` (single isomer, unassigned) [2a Diastereomer 1], the EC50 with HCV genotype 1b replicon (setting [6]) is > 10 µM. Also, the cytotoxic concentration (CC50) at 72 h in data set [1] (setting [5]) is > 50 µM.

Consider `CCOc1nc(N)nc2c1ncn2[C@@H]1O[C@H](COP(=O)(N[C@@H](C)C(=O)OC(C)C)Oc2ccccc2)C[C@@]1(C)F` (single isomer, unassigned) [2b Diastereomer 1], for which the concentration for a half-maximal effect (EC50) in the data set with HCV genotype 1b replicon (setting [7]) is > 10 µM. Moreover, the CC50 at 72 h in data set [1] (setting [5]) was > 50 µM.

In the case of `CCOc1nc(N)nc2c1ncn2[C@@H]1O[C@H](COP(=O)(N[C@@H](C)C(=O)OC(C)C)Oc2ccccc2)C[C@@]1(C)F` (single isomer, unassigned) [2b Diastereomer 2], the 50% effective concentration (EC50) in the data set on HCV genotype 1b replicon (setting [7]) was in the range of 1 to 10 µM. For the same compound, the CC50 with Zluc cells is > 50 µM.

`CC(C)OC(=O)[C@H](C)NP(=O)(OC[C@@H]1C[C@@](C)(F)[C@H](n2ccc(N)nc2=O)O1)Oc1ccccc1` (single isomer, unassigned) [3b Diastereomer 1]: the concentration giving a half-maximal response (EC50) with HCV genotype 1b replicon (setting [6]) was > 10 µM. Further, the cytotoxic concentration (CC50) at 72 h in data set [1] (setting [5]) was > 50 µM.

`CC(C)OC(=O)[C@H](C)NP(=O)(OC[C@@H]1C[C@@](C)(F)[C@H](n2ccc(=O)[nH]c2=O)O1)Oc1ccccc1` (single isomer, unassigned) [4b Diastereomer 1]: in the data set on HCV genotype 1b replicon (setting [7]), the EC50 lay in the range of 0.25 to 1 µM. In addition, in data set [1] (setting [5]), the cytotoxic concentration (CC50) at 72 h is > 50 µM.

As for `CC(C)OC(=O)[C@H](C)NP(=O)(OC[C@@H]1C[C@@](C)(F)[C@H](n2ccc(=O)[nH]c2=O)O1)Oc1ccccc1` (single isomer, unassigned) [4b Diastereomer 2], the half-maximal effective concentration (EC50) in the data set with HCV genotype 1b replicon (setting [7]) fell in the range of 1 to 10 µM. The cytotoxic concentration (CC50) in the data set with Zluc cells was > 50 µM.

As for `CC(C)OC(=O)[C@H](C)NP(=O)(OC[C@@H]1C[C@@](C)(F)[C@H](n2cnc3c(=O)[nH]c(N)nc32)O1)Oc1ccccc1` (single isomer, unassigned) [lb Diastereomer 2], in the data set on HCV genotype 1b replicon (setting [4]), the 50% effective concentration (EC50) is > 10 µM. For the same compound, the half-maximal cytotoxic concentration (CC50) in the data set on Zluc cells was > 50 µM.

For the compound `C[C@@]1(F)C[C@@H](COP(=O)(O)OP(=O)(O)OP(=O)(O)O)O[C@H]1n1cnc2c(=O)[nH]c(N)nc21` [Compound 101], the half-inhibitory concentration (IC50) in data set [2] is < 0.25 µM; in data set [3], 1 to 10 µM.

For `C[C@@]1(F)C[C@@H](COP(=O)(O)OP(=O)(O)OP(=O)(O)O)O[C@H]1n1ccc(=O)[nH]c1=O` [Compound 102], the IC50 in data set [2] was 1 to 10 µM; in data set [3], > 10 µM.

As for `C[C@@]1(F)C[C@@H](CO)O[C@H]1n1cnc2c(=O)[nH]c(N)nc21` [Compound 201], the EC50 in the data set on HCV genotype 1b replicon (setting [6]) was > 10 µM. The CC50 at 72 h in data set [1] (setting [8]) is > 50 µM.

On to `C[C@@]1(F)C[C@@H](CO)O[C@H]1n1ccc(=O)[nH]c1=O` [Compound 202], for which the concentration giving a half-maximal response (EC50) in the data set on HCV genotype 1b replicon (setting [6]) is > 10 µM. Also, in data set [1] (setting [8]), the CC50 at 72 h is > 50 µM.

(Values after US9309275B2, “3′-deoxy nucleosides for the treatment of HCV” (Idenix Pharmaceuticals, Inc., priority 2013, dated 2016).)
